Assay results: US20180209956A1, “HTS Assay for Identifying Small Molecule Inhibitors of RAD52 and Uses of Identified Small Molecule Inhibitors for Treatment and Prevention of BRCA-Deficient Malignancies” (University of Iowa Research Foundation, priority 2015, published 2018)

Assays:
GM01604 cells = test: Neutral comet assay of RAD52/MUS81-dependent DSB formation; format: cell-based, human; details: for IC50 for decrease of mean tail moment following HU treatment, in words: 2 mM HU + 300 nM UCN01, 6 h
Description: Inhibiting the RAD52-ssDNA interaction interferes with RAD52/MUS81-mediated DSB formation essential for the replication fork recovery in check point deficient cells: In human cells, RAD52 may perform both limited recombination-mediator function in the RAD51-dependent pathway (Lok and Powell, 2012, Benson et al., 1998, Feng et al., 2011) as well as additional RAD51-independent roles (Lok and Powell, 2012, Murfuni et al., 2013, Mcllwraith and West, 2008). One of these HR independent roles of RAD52 involves stimulation of MUS81/EME1-dependent DSB formation at the replication forks stalled by hydroxyurea (HU) treatment in the absence of cellular checkpoints (Murfuni et al., 2013). Since the most likely targets of these MUS81/EME1/RAD52-dependent DSBs are the DNA structures produced by RAD52 (Murfuni et al., 2013), we expected this activity to depend on the RAD52-ssDNA interaction (FIG. 5a). To confirm this, we assessed DSB formation in the checkpoint deficient cells using the neutral comet assay. These assays monitor MUS81/EME1/RAD52-dependent DSB formation upon induction of replication stress by HU treatment in primary fibroblasts immortalized by hTERT expression and treated with UNC01 to inhibit CHK1 kinase (FIG. 5b). […] Importantly, these inhibitors recapitulate RAD52 depletion by inhibiting RAD52-MUS81-dependent DSBs at stalled replication forks (FIG. 5a-b). […] It also confirms our previous supposition that the target of MUS81/EME1-mediated cleavage under these conditions are indeed the structures annealed by RAD52. […] We previously reported that concomitant depletion of RAD52 and MUS81 gives raise to the MUS81-independent DSBs (Murfuni et al., 2013). […] Furthermore, accumulation of anaphase bridges, a phenotype associated with impairment of the RAD52-independent mitotic function of MUS81/EME1 was completely unaffected by inhibition of RAD52, whereas it was strongly stimulated by MUS81 silencing (FIG. 5 Supplement 1).
Neutral Comet Assay: To induce RAD52-MUS81-dependent cleavage at arrested replication forks (Murfuni et al., 2013), hTERT-immortalized wild-type human fibroblasts (GM01604) were treated with 2 mM HU and 300 nM UCN01 for 6 h, in the presence and absence of varying concentrations of ‘1’ or ‘6’. Where indicated, the GM01604 cells were cells were transfected with siRNAs directed against GFP (Ctrl), or against RAD52 (Qiagen) 48 hours prior to induction of the replication stress and/or inhibitor treatment. After that cells were subjected to neutral comet assay as described in Murfuni et al (Murfuni et al., 2013). Slides were analyzed by a computerized image analysis system (Comet IV, Perceptive UK). To assess the quantity of DNA damage, computer-generated tail moment values (tail length×fraction of total DNA in the tail) were used. Apoptotic cells (smaller comet head and extremely larger comet tail) were excluded from the analysis to avoid artificial enhancement of tail moment. A minimum of 100 cells were analyzed for each compound concentration point.

RPA-ssDNA interaction = biological target: T1, RPA-ssDNA interaction (Homo sapiens, UniProt P15927+P27694+P35244); test: FRET titration of the RPA-Cy3-dT30-Cy5 complex; format: binding
T1 construct: made in house
Description: Compounds ‘1’ and ‘6’ inhibit RAD52 binding to and annealing of the RPA-coated ssDNA: In the cell, ssDNA is typically found in complex with Replication protein A (RPA), which is the major eukaryotic ssDNA-binding protein essential for DNA replication, repair and recombination (Wold, 1997, Oakley and Patrick, 2010, Chen and Wold, 2014). The RPA-ssDNA complex is a natural substrate for the RDA52-mediated strand annealing. To confirm that compounds ‘1’ and ‘6’ can inhibit the RAD52 binding to and annealing of the RPA-coated ssDNA we added stoichiometric amounts of RPA (1 RPA per 30 nucleotides of ssDNA) to the FRET-based ssDNA binding/wrapping and ssDNA annealing experiments described above. RPA binds ssDNA with high affinity and extends the ssDNA to its contour length. In our assays such an extension manifests as a distinct FRET state of ˜0.3, which is readily distinguished from a FRET state of ˜0.48 of free Cy3-dT30-Cy5 ssDNA, as well as ˜0.63 FRET of the stoichiometric ssDNA-RPA-RAD52 complex (see FIG. 2 Supplement 1 and (Grimme and Spies, 2011) for details). […] Both, however, inhibited the RAD52 binding to and wrapping of RPA-coated ssDNA with IC50 values identical to those determined without RPA (FIG. 2e and FIG. 3e).
where FRET0 is the initial FRET value of RAD52-ssDNA complex in the absence of the compound and FRETmin is the FRET value at complete inhibition. FRET values were calculated as an average of three or more independent annealing reactions plotted against the concentration of the compound. Inhibition of the RAD52-dsDNA interaction was assayed in a similar experiment, except the stoichiometric complexes containing 1 nM molecules of Cy3-Oligo28-Cy5 duplex DNA and 10 nM RAD52. […] In all experiments, the FRET values for each data point were corrected for the effects of the compounds on the respective substrate in the absence of RAD52.

RPA = biological target: T2, RPA (Homo sapiens, UniProt P15927+P27694+P35244); test: WaterLOGSY NMR analysis of compound binding to RPA; details: 20 or 40 μM compound, 3.3 μM RPA
T2 construct: made in house
Description: Compounds ‘1’ and ‘6’ physically interact with RAD52: To confirm that the selected compounds bind RAD52, we employed water-ligand observation with gradient spectroscopy (WaterLOGSY), an NMR technique, which is based on transfer of magnetization from bulk water to the protein-bound compound of interest (Dalvit et al., 2001, Dalvit et al., 2000). In WaterLOGSY spectrum, if a compound binds to a protein, the compound will receive negative nuclear Overhauser effects (NOEs) due to the slow tumbling of the protein-compound complex, leading to a positive WaterLOGSY peak.
WaterLOGSY NMR analysis of the compound binding to RAD52 and RPA proteins: Compound binding to RAD52 and RPA proteins was analyzed using water-ligand observation with gradient spectroscopy (WaterLOGSY) NMR experiments (Dalvit et al., 2001, Dalvit et al., 2000). The WaterLOGSY spectra of compounds in the presence of RAD52 or RPA were acquired using a water NOE mixing time of 1 s and a T2 relaxation filter of 50 ms just before data acquisition to suppress the broad signals derived from protein. The protein buffer used in the experiments contains 10 mM Tris-d11, 75 mM KCl, 0.25 mM EDTA, pH 7.5, and 10% D20. All NMR data were acquired on a Bruker Avance II 800 MHz NMR spectrometer equipped with a sensitive cryoprobe and recorded at 25° C. The ^1H chemical shifts were referenced to 2,2-dimethyl-2-silapentane-5-sulfonate (DSS). NMR spectra were processed using NMR Pipe (Delaglio et al., 1995) and analysed using NMR View (Johnson and Blevins, 1994).

T1 sequence (P27694 whole entry): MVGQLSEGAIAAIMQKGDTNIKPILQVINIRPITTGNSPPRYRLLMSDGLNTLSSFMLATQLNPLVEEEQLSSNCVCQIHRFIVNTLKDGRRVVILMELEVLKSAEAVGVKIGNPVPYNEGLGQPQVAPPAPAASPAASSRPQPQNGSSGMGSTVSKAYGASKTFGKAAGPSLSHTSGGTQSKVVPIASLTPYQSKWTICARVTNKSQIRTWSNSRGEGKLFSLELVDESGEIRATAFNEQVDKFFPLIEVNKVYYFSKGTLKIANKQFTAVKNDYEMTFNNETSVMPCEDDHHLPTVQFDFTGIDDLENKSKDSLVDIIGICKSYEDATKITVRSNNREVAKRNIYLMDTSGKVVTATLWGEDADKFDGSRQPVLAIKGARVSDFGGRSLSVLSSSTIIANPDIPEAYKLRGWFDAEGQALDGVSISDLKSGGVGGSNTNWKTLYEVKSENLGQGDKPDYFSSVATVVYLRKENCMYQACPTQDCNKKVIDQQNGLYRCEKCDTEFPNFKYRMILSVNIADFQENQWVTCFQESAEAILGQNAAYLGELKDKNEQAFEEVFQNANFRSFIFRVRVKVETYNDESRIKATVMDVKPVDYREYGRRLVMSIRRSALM
T1 sequence (P15927 whole entry): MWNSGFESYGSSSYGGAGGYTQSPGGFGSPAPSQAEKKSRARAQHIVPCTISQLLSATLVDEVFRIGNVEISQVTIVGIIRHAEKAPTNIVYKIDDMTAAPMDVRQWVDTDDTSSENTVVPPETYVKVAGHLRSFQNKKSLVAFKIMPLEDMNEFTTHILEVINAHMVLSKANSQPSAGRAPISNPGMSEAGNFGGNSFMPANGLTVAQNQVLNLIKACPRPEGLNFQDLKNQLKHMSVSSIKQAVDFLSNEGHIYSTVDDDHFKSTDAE
T1 sequence (P35244 whole entry): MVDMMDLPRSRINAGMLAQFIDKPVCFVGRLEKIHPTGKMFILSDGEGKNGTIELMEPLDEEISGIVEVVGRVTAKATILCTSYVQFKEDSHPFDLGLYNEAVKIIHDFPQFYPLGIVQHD
T2 sequence (P27694 whole entry): as the sequence (P27694 whole entry) above
T2 sequence (P15927 whole entry): as the sequence (P15927 whole entry) above
T2 sequence (P35244 whole entry): as the sequence (P35244 whole entry) above

SMILES | IC50 for decrease of mean tail moment following HU treatment, in words (GM01604 cells) | Concentration sufficient to achieve the same level in DSB reduction as siRNA treatment (GM01604 cells; HU + UCN01) | DSB formation in RAD52-depleted cells (GM01604 cells; RAD52 siRNA plus compound) | Effect on the RPA-ssDNA interaction (RPA-ssDNA interaction) | Binding to RPA by WaterLOGSY (RPA) | Reduction in DSBs compared with siRNA depletion of RAD52 (GM01604 cells; 500 nM compound, HU + UCN01) | DSB formation in MUS81-depleted cells (GM01604 cells; replication stress induced by CHK1 inhibition)
O=C(O[C@@H]1Cc2c(O)cc(O)cc2O[C@@H]1c1cc(O)c(O)c(O)c1)c1cc(O)c(O)c(O)c1 [Compound 6, Epigallocatechin-3-monogallate] | mid nanomolar to low micromolar | higher concentration | failed to further decrease the formation of DNA breaks | does not interfere with the RPA-ssDNA interaction | binds to RPA |  | 
Oc1cc(O)c2c(c1)O[C@H](c1cc(O)c(O)c(O)c1)[C@H](O)C2 [Compound ‘1’, (−)-Epigallocatechin] | mid nanomolar to low micromolar | 1 µM |  | nor interferes with the RPA-ssDNA interaction | neither binds to RPA | same effect of reduction in DSBs as siRNA depletion of RAD52 | appearance of the MUS81-independent DSBs
